This is an account of results in patent US20250325675A1, “APTAMER, CONJUGATE, COMPOSITION, METHOD FOR PREPARING SAME, AND USE THEREOF” (priority 2022, published 2025).

Series [1] concerns U118MG glioma tumor spheres. The series can be described thus: High content imaging: entry into U118MG tumor spheres. To be noted: 100 nM, imaging without washing. Type of series: cell-based, human. The protocol: In this experiment, the entry of conjugate AP1 provided by the present disclosure and comparative conjugate comparative AP10 into U118MG glioma tumor spheres and A549 human non-small cell lung cancer tumor spheres was observed by a PerkinElmer High Content Imaging system (Operatta).
80 μL fresh, sterilized and unsolidified 2% agarose was added into the culture wells of a 96-well plate. […] Half of the supernatant was aspirated every 48 h and fresh DMEM medium was added along the wall of the culture wells. After 7 days of culture, the cells were observed under the microscope to confirm that complete cell spheres were obtained, indicating successful tumor sphere cultivation.
Each culture well was added with AP1 or comparative AP10 according to the method of experimental Example 2, and imaged in a high content imaging system, with the only difference of directly performing imaging after culture without washing and performing imaging according to the measured fluorescence intensity of Cy5.

Series [2] deals with MCF-7 human breast cancer cells. As to the kind of experiment: High content imaging: entry of conjugates into MCF-7 cells. To be noted: 100 nM, 30 min 37°C. The class given is cell-based. The protocol:
(§1) In this experiment, the entry of conjugate AP1 provided by the present disclosure and comparative conjugate comparative AP10 into different cells was observed by a PerkinElmer High Content Imaging system (Operatta).
(§2) U118MG glioma cells, SVGp12 normal astrocytes, T98G human brain glioma cells, U251 human glioma cells, A549 human non-small cell lung cancer cells, MCF-7 human breast cancer cells, and 293T human kidney epithelial cells were all purchased from the Shanghai Cell Bank of Chinese Academy of Sciences. […] The supernatant was aspirated and DPBS buffer (purchased from Thermo Fisher) was added to wash the plate 2 times (100 μL each time).
(§3) Conjugate AP1 prepared above and yeast tRNA were respectively formulated into conjugate solution 2A with DMEM medium, and the conjugate solution 2A comprised yeast tRNA at a final concentration of 100 μg/mL and conjugate AP1 at a final concentration of 100 nM. […]
(§4) Normalization was performed according to the mean fluorescence intensity of control group 2Y, that is, subtracting the mean fluorescence intensity of control group 2Y from the fluorescence intensity of test group 2X before performing imaging.

The subject of a further series is U118-MG glioma cells. As to the kind of experiment: Flow cytometry: entry of conjugates into U118-MG glioma cells in vitro. The class given is cell-based, human. To be noted: for relative fluorescence difference R: R=(MFIAP1−MFICAP10)/MFICAP10; for mean fluorescence intensity (MFI): 1 h 37°C, yeast tRNA 100 μg/mL, flow cytometry. The method, then:
U118MG cells were seeded into a 96-well plate at 5×10^5 cells/well. Conjugate AP1 prepared above and yeast tRNA were respectively formulated into conjugates solution 1A, 1B, 1C, 1D, 1E, 1F, 1G, 1H, and 1I with DMEM medium, and these conjugate solutions 1A-1I comprised yeast tRNA at a final concentration of 100 μg/mL and respectively comprised conjugate AP1 at final concentrations of 5 nM, 10 nM, 20 nM, 40 nM, 60 nM, 80 nM, 100 nM, 150 nM, 200 nM, and […].
Control conjugate comparative AP10 prepared above and yeast tRNA were respectively formulated into conjugates solution 1A′, 1B′, 1C′, 1D′, 1E′, 1F′, 1G′ 1H′, and 1I′ with DMEM medium, and these conjugate solutions 1A′-1I′ comprised yeast tRNA at a final concentration of 100 μg/mL and respectively comprised control conjugate comparative AP10 at final concentrations of 5 nM, 10 nM, 20 nM, 40 nM, 60 nM, 80 nM, 100 nM, 150 nM, 200 nM, and […].
The aforementioned culture wells containing U118MG cells were respectively added with the conjugate solutions 1A-1I above in an amount of 200 μL/well and designated as test group 1A-test group 1I. The aforementioned culture wells containing U118MG cells were respectively added with the conjugate solution 1A′-1I′ above in an amount of 200 μL/well and designated as control group 1A′-control group 1I′. Another culture well containing U118MG cells was added with 200 μL DMEM medium containing yeast tRNA at a final concentration of 100 μg/mL and designated as blank control group 1J. The 96-well plate containing the above test groups and the blank control group were incubated at 37° C. for 1 h in the dark; after incubation, the supernatant of the reaction mixture of each test group and the blank control group was aspirated, and DPBS buffer (purchased from Thermo Fisher) was added to wash the plate 3 times (100 μL each time). After the washing solution was aspirated, each culture well was added with 100 μL DMEM medium to obtain a cell suspension. The supernatant was removed by centrifugation and then 500 μL DPBS buffer was added to re-suspend the cells. Flow cytometry analysis was performed with flow cytometer (BD Biosciences): 10,000 cells in each test group or the blank control group were analyzed, the fluorescence intensity distribution was determined and the mean fluorescence intensity (MFI, a.u.) was calculated. Furthermore, the mean fluorescence intensity corresponding to each final concentration of conjugates is listed in Table 4 below for comparison, and the relative fluorescence difference R is calculated according to the following equation: R=(MFIAP1−MFICAP10)/MFICAP10.
Therein, MFIAP1 represents mean fluorescence intensity of conjugate AP1 in U118-MG glioma cells, and MFICAP10 represents mean fluorescence intensity of comparative AP10 in U118-MG glioma cells.

Series [3] has as its system 293T human renal epithelial cells. As to the kind of experiment: High content imaging: entry of conjugates into 293T cells. The class given is cell-based. To be noted: 100 nM, 30 min 37°C, normal cells. The protocol:
as §1, §2, §3, §4

{Cy5} = cyanine 5 fluorescent dye

Take “CY5-CfUfGGAGUfUfCfAGACfGUfGUfUfGCfUfCfUfUfCfCfGAUfCfUfCf (CUGGAGUUCAGACGUGUUGCUCUUCCGAUCUC; 2'-fluoro at CU, RNA at AG, 5' {Cy5}, backbone not given here) [AP1]”: in series [1], the “Cy5 fluorescence signal in tumor spheres” value is listed as “strong Cy5 fluorescence signal”. In addition, the “Cy5 fluorescence signal in cells” value in series [2] is “strong Cy5 fluorescence signal”; in series [3], “nor the 293T human renal epithelial cells showed any fluorescence signal”. The “relative fluorescence difference R” value in the series with U118-MG glioma cells (5 nM) turned out to be 9.37; with U118-MG glioma cells (10 nM) it was 6.47; with U118-MG glioma cells (20 nM) it was 5.18; with U118-MG glioma cells (40 nM), 2.25; in the series on U118-MG glioma cells (60 nM), 2.53; with U118-MG glioma cells (80 nM) it was 2.71. Besides, the “relative fluorescence difference R” value was determined as 1.88 in the series on U118-MG glioma cells (100 nM), 2.17 with U118-MG glioma cells (150 nM), 3.23 in the series on U118-MG glioma cells (200 nM) and 2.91 in the series with U118-MG glioma cells (500 nM). The “mean fluorescence intensity compared with comparative AP10” value in the series on U118-MG glioma cells (at different concentrations (5-500 nM)) was “significantly higher mean fluorescence intensity”. The “mean fluorescence intensity (MFI)” value with U118-MG glioma cells (conjugate 5 nM) stood at 263.4 a.u; in the series with U118-MG glioma cells (conjugate 10 nM), 503.4 a.u; with U118-MG glioma cells (conjugate 20 nM) it was 1089.4 a.u; in the series on U118-MG glioma cells (conjugate 40 nM), 1440.4 a.u; in the series with U118-MG glioma cells (conjugate 60 nM), 2355.4 a.u; in the series on U118-MG glioma cells (conjugate 80 nM), 2921.4 a.u. Further, the “mean fluorescence intensity (MFI)” value in the series with U118-MG glioma cells (conjugate 100 nM) stood at 3360.4 a.u; in the series with U118-MG glioma cells (conjugate 150 nM), 3969.4 a.u; in the series on U118-MG glioma cells (conjugate 200 nM), 7895.4 a.u; in the series with U118-MG glioma cells (conjugate 500 nM), 15770.4 a.u.
